Patent US11643413B2, “9-(2-oxacycloalkyl)-9H-purine-2,6-diamine derivatives and their use for the treatment of skin disorders” (UNIVERZITA PALACKEHO V OLOMOUCI, priority 2017, dated 2023)
Like-named read-outs stand apart in the source and are kept apart here.

Experiments:
B10A.4 [1] = system: B10A.4
Text: (§1) One of the parameters used, as the basis for cytotoxicity assays, is the metabolic activity of viable cells. For example, a microtiter assay, which uses the Calcein AM, is now widely used to quantitate cell proliferation and cytotoxicity. […] Because only metabolically active cells cleave Calcein AM, these assays detect viable cells exclusively. The quantity of reduced Calcein AM corresponds to the number of vital cells in the culture.
(§2) Mouse fibroblasts NIH3T3; mouse immortalized bone marrow macrophages B2.4 and B10A.4, and BJ (human foreskin fibroblasts) were used for routine screening of compounds. The cells were maintained in Nunc/Corning 80 cm^2 plastic tissue culture flasks and cultured in cell culture medium (DMEM with 5 g/l glucose, 2 mM glutamine, 100 U/ml penicillin, 100 μg/ml streptomycin, 10% fetal calf serum and sodium bicarbonate).
(§3) The cell suspensions that were prepared and diluted according to the particular cell type and the expected target cell density (2.500-30.000 cells per well based on cell growth characteristics) were added by pipette (80 μl) into 96/well microtiter plates. Inoculates were allowed a pre-incubation period of 24 hours at 37° C. and 5% CO2 for stabilisation. Four-fold dilutions of the intended test concentration were added at time zero in 20 μl aliquots to the microtiter plate wells. Usually, the compound tested was evaluated at six 4-fold dilutions. […] All compound concentrations were examined in duplicates. Incubations of cells with the tested compounds lasted for 72 hours at 37° C., in 5% CO2 atmosphere and 100% humidity. At the end of the incubation period, the cells were assayed by using Calcein AM. Ten microliters of the stock solution were pipetted into each well and incubated for 1 hour. Fluorescence (FD) was measured with the Labsystem FIA Reader Fluoroscan Ascent (UK).

B10A.4 [2] = system: B10A.4; remark: listed apart in the source
Text: as §1, §2, §3

NIH-3T3 [3] = system: NIH-3T3
Text: as §1, §2, §3

[4] = system: BJ (human foreskin fibroblasts)
Text: as §1, §2, §3

[5] = system: BJ (human foreskin fibroblasts); assay: Calcein AM cytotoxicity, BJ; conditions: read-out: Cytotoxicity IC50, BJ; 72 hours incubation, Calcein AM; highest concentration […]
Text: as §1, §2, §3

NIH-3T3 [6] = assay: Calcein AM cytotoxicity, NIH-3T3; conditions: read-out: Cytotoxicity IC50, NIH-3T3; 72 hours incubation, Calcein AM; highest concentration […]
Text: as §1, §2, §3

B10A.4 [7] = assay: Calcein AM cytotoxicity, B10A.4 (first column); conditions: read-out: Cytotoxicity IC50, B10A.4; 72 hours incubation, Calcein AM; highest concentration […]
Text: as §1, §2, §3

NIH3T3 fibroblasts = assay: Peroxidation of membrane lipids, MDA by TBA method; format: cell-based, mouse; conditions: FW = fresh weight
Protocol: A typical symptom associated with aging is the direct consequence of increased concentrations of reactive oxygen species and lipid peroxidation. […] MDA levels were measured using thiobarbituric acid (TBA method). […] The crude extract was centrifuged at 10,000×g for 5 minutes and 100 μl aliquots of the supernatant were mixed with 100 μl of 0.5% (w/v) TBA containing 0.1% (w/v) trichloroacetic acid. The resulting solution was then incubated for 30 min at 95° C. The samples were rapidly cooled on ice and centrifuged for 5 minutes at 1000×g. […] The newly prepared derivatives of the general formula thus have a protective function against the negative effects of reactive oxygen species that accumulate strongly in the tissues.

B10A.4 [8] = assay: Calcein AM cytotoxicity, B10A.4 (second column); conditions: read-out: Cytotoxicity IC50, B10A.4, 72 hours incubation, highest concentration […]
Text: as §1, §2, §3

[9] = Radical scavenging activity determined by ORAC; conditions: relative to trolox; Mean ± SD (n = 3)
Protocol: The ability of compounds to scavenge free radicals in vitro was determined by Oxygen Radical Absorbance Capacity (ORAC) method. In brief, fluorescein (100 μl, […]) and 25 μl of compound solution were added into each working well in a 96-well microplate preincubated at 37° C. Thereafter, 25 μL of 250 mM AAPH was quickly added, microplate was shaken for 5 s and the fluorescence (Ex. 485 nm, Em. 510 nm) was read every 3 min over 90 min by using microplate reader Infinite 200 (TECAN, Switzerland). The net area under the curve was used to express antioxidant activity relative to trolox which was used as a standard.

[10] = Calcein AM cytotoxicity, BJ; conditions: human, BJ foreskin fibroblasts
Text: as §1, §2, §3

[11] = Calcein AM cytotoxicity, NIH-3T3; conditions: mouse, NIH-3T3 fibroblasts
Text: as §1, §2, §3

[12] = Calcein AM cytotoxicity, B10A.4 (first column); conditions: mouse, B10A.4 immortalized bone marrow macrophages
Text: as §1, §2, §3

Row | IC50 (B10A.4 [1]) | IC50 (B10A.4 [2]) | IC50 (NIH-3T3 [3]) | IC50 [4] | SMILES | IC50 [5] | IC50 (NIH-3T3 [6]) | IC50 (B10A.4 [7]) | MDA (NIH3T3 fibroblasts) | IC50 (B10A.4 [8]) | also measured
1 | – | – | – | – | Nc1ncnc2nc[nH]c12 [Adenine, reference compound] | – | – | – | – | – | IC50 (B10A.4 [1]; mouse, 72 h): > 167 µM; IC50 (B10A.4 [2]; mouse, 72 h): > 167 µM; IC50 (NIH-3T3 [3]; mouse, 72 h): > 167 µM; IC50 ([4]; human, 72 h): > 167 µM
2 | – | – | – | – | CC(C)=CCNc1nc(N(C)C)nc2c1ncn2C1CCO1 (stereo not drawn) [Compound 13] | > 167 µM | > 167 µM | > 167 µM | 13.1 nmol/g FW | > 167 µM | –
3 | – | – | – | – | CCN(CC)c1nc(NCC=C(C)C)c2ncn(C3CCO3)c2n1 (stereo not drawn) [Compound 14] | > 167 µM | > 167 µM | > 167 µM | 11.4 nmol/g FW | > 167 µM | –
4 | – | – | – | – | Cc1ccc(CNc2nc(N(C)C)nc3c2ncn3C2CCCO2)o1 (stereo not drawn) [Compound 46, 2-(Dimethylamino)-6-[(5-methylfurfuryl)amino]-9-(tetrahydrofuran-2-yl)-9H-purine] | – | – | – | 11.2 nmol/g FW | – | ORAC (compound/trolox) [9]: 0.14 ± 0.004; IC50 at 72 h [10]: > 167 µM; IC50 at 72 h [11]: > 167 µM; IC50 at 72 h [12]: > 167 µM
5 | > 167 µM | > 167 µM | > 167 µM | > 167 µM | CNc1nc(NCc2occc2OC)c2ncn(C3CCCO3)c2n1 (stereo not drawn) [Compound 49] | – | – | – | 12.3 nmol/g FW | – | –
6 | – | – | – | – | CN(C)CCNc1nc(NCc2ccco2)c2ncn(C3CCCCO3)c2n1 (stereo not drawn) [Compound 116, 2-{[2-(Dimethylamino)ethyl]amino}-6-furfurylamino-9-(tetrahydro-2H-pyran-2-yl)-9H-purine] | – | – | – | 9.2 nmol/g FW | – | ORAC (compound/trolox) [9]: 2.475 ± 0.086; IC50 at 72 h [10]: > 167 µM; IC50 at 72 h [11]: > 167 µM; IC50 at 72 h [12]: > 167 µM
7 | – | – | – | – | c1coc(CNc2ncnc3nc[nH]c23)c1 [Kinetin, N^6-furfuryladenine, reference compound] | 148 µM | 133 µM | > 167 µM | 14.2 nmol/g FW | 164 µM | –
8 | 147 µM | > 167 µM | 124 µM | 134 µM | CC(C)=CCNc1ncnc2nc[nH]c12 [isopentenyladenine, reference compound] | – | – | – | – | – | –
9 | ≥ 178 µM | > 167 µM | ≥ 167 µM | 166 µM | Oc1cccc(CNc2ncnc3nc[nH]c23)c1 [meta-topolin, reference compound] | – | – | – | – | – | –
